# In patent US20080317857A1, “V-Atpase Inhibitors of Use in the Treatment of Septic Shock” (Brane Discovery S.r.l., priority 2005, published 2008):
# Where two headings read alike, the source gives them in different places.
# What was measured:
# [1] = test system: NADPH-oxidase activation (H2O2 release) in PMNs; assay: Respiratory burst (H2O2 assay) in PMNs; format: cell-based, human; settings: for inhibition at 25 µM / inhibition at 50 µM / inhibition at 100 µM: Homo sapiens, read-out: Inhibition of H2O2 release induced by PMA in PMNs (% PMA control); for inhibition at 25 µM: [cpd] 25 μM; for inhibition at 50 µM: [cpd] 50 μM; for inhibition at 100 µM: [cpd] 100 μM
# Protocol: (§1) NADPH-oxidase activation was measured as induction of H2O2 release (derived from dismutation of O2^−) triggered in PMNs and monocytes by PMA (200 ng/ml). Briefly, PMNs and monocytes were pretreated at 37° C. for 30-60 min with test compound at different concentrations, and stimulated with phorbol 12-myristate 13-acetate (PMA, 200 ng/ml) dissolved in 0.5 ml of a standard reaction mixture. Release of H2O2 was evaluated in real time at time points of 5 min by using a microplate fluorescence reader (Perkin-Elmer). Results are expressed as nmoles of H2O2 released over time by 10^6 cells. Shown are dose-response curves of inhibitory effect on H2O2 release over 60 min.
# [2] = test system: NADPH-oxidase activation (H2O2 release) in Monocytes; assay: Respiratory burst (H2O2 assay) in monocytes; format: cell-based, human; settings: for inhibition at 0.4 µM / inhibition at 1 µM / inhibition at 25 µM / inhibition at 50 µM / inhibition at 100 µM: Homo sapiens, Monocyte, read-out: Inhibition of H2O2 release induced by PMA in Monocytes (% PMA control); for inhibition at 0.4 µM: [cpd] 0.4 μM; for inhibition at 1 µM: [cpd] 1.0 μM; for respiratory burst / NADPH-oxidase activation induced by PMA in monocytes (in words): PMA 200 ng/ml; for inhibition at 25 µM: [cpd] 25 μM; for inhibition at 50 µM: [cpd] 50 μM; for inhibition at 100 µM: [cpd] 100 μM
# Protocol: as §1
# V-ATPase = settings: cited from earlier work
# rat ovariectomized model = settings: cited from earlier work
structure (smiles),measurement,setting,value
"C/C=C/[C@H]1O[C@@](O)([C@@H](C)[C@H](O)[C@H](C)[C@H]2OC(=O)/C(OC)=C/C(C)=C/[C@@H](C)[C@@H](O)[C@@H](CC)[C@@H](O)[C@H](C)C/C(C)=C/C=C/[C@@H]2OC)C[C@@H](O[C@H]2C[C@@H](O)[C@H](OC(N)=O)[C@@H](C)O2)[C@@H]1C [Concanamycin A1, Concanamycin A]",inhibition of the release of oxygen radicals in PMNs,[1]; 10 nM concentration,58%
same,Inhibition of H2O2 release induced by PMA in PMNs (% PMA control),"[1]; [cpd] 0.0005 μM, 30 min",33.4%
same,Inhibition of H2O2 release induced by PMA in PMNs (% PMA control),"[1]; [cpd] 0.0005 μM, 40 min",35.2%
same,Inhibition of H2O2 release induced by PMA in PMNs (% PMA control),"[1]; [cpd] 0.0005 μM, 50 min",38.9%
same,Inhibition of H2O2 release induced by PMA in PMNs (% PMA control),"[1]; [cpd] 0.001 μM, 30 min",36.2%
same,Inhibition of H2O2 release induced by PMA in PMNs (% PMA control),"[1]; [cpd] 0.001 μM, 40 min",45.0%
same,Inhibition of H2O2 release induced by PMA in PMNs (% PMA control),"[1]; [cpd] 0.001 μM, 50 min",56.4%
same,Inhibition of H2O2 release induced by PMA in PMNs (% PMA control),"[1]; [cpd] 0.010 μM, 30 min",50.2%
same,Inhibition of H2O2 release induced by PMA in PMNs (% PMA control),"[1]; [cpd] 0.010 μM, 40 min",58.3%
same,Inhibition of H2O2 release induced by PMA in PMNs (% PMA control),"[1]; [cpd] 0.010 μM, 50 min",58.3%
same,inhibition of the release of oxygen radicals in monocytes,[2]; 10 nM concentration,50%
same,Inhibition of H2O2 release induced by PMA in Monocytes (% PMA control),"[2]; [cpd] 0.0005 μM, 30 min",17.0%
same,Inhibition of H2O2 release induced by PMA in Monocytes (% PMA control),"[2]; [cpd] 0.0005 μM, 40 min",26.3%
same,Inhibition of H2O2 release induced by PMA in Monocytes (% PMA control),"[2]; [cpd] 0.0005 μM, 50 min",33.3%
same,Inhibition of H2O2 release induced by PMA in Monocytes (% PMA control),"[2]; [cpd] 0.001 μM, 30 min",35.7%
same,Inhibition of H2O2 release induced by PMA in Monocytes (% PMA control),"[2]; [cpd] 0.001 μM, 40 min",43.4%
same,Inhibition of H2O2 release induced by PMA in Monocytes (% PMA control),"[2]; [cpd] 0.001 μM, 50 min",50.2%
same,inhibition of V-ATPase (in words),V-ATPase; literature,very potent and highly specific inhibitors
O=C(Nc1cccc2c1nc(C(F)(F)F)n2CC(=O)N1CCOCC1)c1c(Cl)cccc1Cl [FR-177995],inhibition at 0.4 µM,"[2]; 0.5 h, 30 min",27.1%
same,inhibition at 1 µM,"[2]; 0.5 h, 30 min",21.3%
same,inhibition at 0.4 µM,"[2]; 40 min, 40 min",29%
same,inhibition at 1 µM,"[2]; 40 min, 40 min",6.3%
same,inhibition at 0.4 µM,"[2]; 50 min, 50 min",26.7%
same,inhibition at 1 µM,"[2]; 50 min, 50 min",5.5%
same,respiratory burst / NADPH-oxidase activation induced by PMA in monocytes (in words),[2],had effect
same,concentrations generally active in inhibiting V-ATPase,V-ATPase,0.4 to 1 µM
same,anti-osteoporotic activity,rat ovariectomized model,high anti-osteoporotic activity
"CCN1C(=O)C=CC1=O [NEM, N-ethylmaleimide]",inhibition at 25 µM,"[1]; 0.5 h, 30 min",100%
same,inhibition at 50 µM,"[1]; 0.5 h, 30 min",100%
same,inhibition at 100 µM,"[1]; 0.5 h, 30 min",100%
same,inhibition at 25 µM,"[1]; 40 min, 40 min",100%
same,inhibition at 50 µM,"[1]; 40 min, 40 min",100%
same,inhibition at 100 µM,"[1]; 40 min, 40 min",100%
same,inhibition at 25 µM,"[1]; 50 min, 50 min",100%
same,inhibition at 50 µM,"[1]; 50 min, 50 min",100%
same,inhibition at 100 µM,"[1]; 50 min, 50 min",100%
same,respiratory burst / NADPH-oxidase activation induced by PMA in PMNs (in words),[1]; PMA 200 ng/ml,completely blocked
same,inhibition at 25 µM,"[2]; 0.5 h, 30 min",100%
same,inhibition at 50 µM,"[2]; 0.5 h, 30 min",100%
same,inhibition at 100 µM,"[2]; 0.5 h, 30 min",100%
same,inhibition at 25 µM,"[2]; 40 min, 40 min",100%
same,inhibition at 50 µM,"[2]; 40 min, 40 min",100%
same,inhibition at 100 µM,"[2]; 40 min, 40 min",100%
same,inhibition at 25 µM,"[2]; 50 min, 50 min",100%
same,inhibition at 50 µM,"[2]; 50 min, 50 min",100%
same,inhibition at 100 µM,"[2]; 50 min, 50 min",100%
same,respiratory burst / NADPH-oxidase activation induced by PMA in monocytes (in words),[2],completely blocked
same,concentrations generally active in inhibiting V-ATPase,V-ATPase,> 25 µM
